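How tested: cells in 96-well plates exposed to compound for 48 hours at five concentrations. GI50 is the concentration that inhibits growth by half.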 The source made the active and inactive calls. Cut-off read from the data, not from the text of the source: active = GI50 up to about 1.1 µM and inactive = higher.
How the values were obtained:
Assay in all cases: NCI-60 cell line screen, 48 h
[1] = system: SF-295
[2] = system: EKVX
[3] = system: SNB-19
[4] = system: A498
[5] = system: CAKI-1
[6] = system: HT-29
[7] = system: SF-539
[8] = system: UACC-62
[9] = system: MCF7
[10] = system: BT-549
[11] = system: A549
[12] = system: MDA-MB-231
[13] = system: OVCAR-4
[14] = system: LOX IMVI
[15] = system: HOP-92
[16] = system: SNB-75
[17] = system: Malme-3M
[18] = system: SW-620
[19] = system: COLO 205
[20] = system: CCRF-CEM

Compound	GI50 [1]	GI50 [2]	GI50 [3]	GI50 [4]	GI50 [5]	GI50 [6]	GI50 [7]	GI50 [8]	GI50 [9]	GI50 [10]	GI50 [11]	GI50 [12]	GI50 [13]	GI50 [14]	GI50 [15]	GI50 [16]	GI50 [17]	GI50 [18]	GI50 [19]	GI50 [20]
c1ccc(CN2CCN3CCN(CC2)CCN(Cc2ccccc2)CC3)cc1	21.9 µM (inactive)	8.47 µM (inactive)	5.43 µM (inactive)	11.7 µM (inactive)	30.3 µM (inactive)	3.37 µM (inactive)	8.26 µM (inactive)	4.24 µM (inactive)	5.5 µM (inactive)	5.16 µM (inactive)	11.5 µM (inactive)	5.43 µM (inactive)	4.04 µM (inactive)	8.81 µM (inactive)	7.06 µM (inactive)	4.05 µM (inactive)	2.83 µM (inactive)	13.7 µM (inactive)	1.93 µM (inactive)	6.37 µM (inactive)
O=C(O)/C(=C/c1ccccc1)c1ccccc1	> 100 µM (inactive)	> 100 µM (inactive)	> 100 µM (inactive)	> 100 µM (inactive)	> 100 µM (inactive)	> 100 µM (inactive)	> 100 µM (inactive)	> 100 µM (inactive)	> 100 µM (inactive)	> 100 µM (inactive)	> 100 µM (inactive)	> 100 µM (inactive)	> 100 µM (inactive)	> 100 µM (inactive)	46.6 µM (inactive)	> 100 µM (inactive)	> 100 µM (inactive)	> 100 µM (inactive)		> 100 µM (inactive)
C=C1CC2(C)CCC(OC(=O)C3(C)OC3C)C(C)(OC(C)=O)C2CC1=C(C)C (stereo not given)	> 100 µM (inactive)	> 100 µM (inactive)	> 100 µM (inactive)	> 100 µM (inactive)	> 10 µM (inactive)	> 100 µM (inactive)	> 100 µM (inactive)	> 100 µM (inactive)	> 100 µM (inactive)	> 100 µM (inactive)	> 100 µM (inactive)	> 100 µM (inactive)	> 100 µM (inactive)	> 100 µM (inactive)	> 100 µM (inactive)	> 100 µM (inactive)	> 100 µM (inactive)	> 100 µM (inactive)	> 100 µM (inactive)	96.6 µM (inactive)
O=C1/C(=C/c2cccc3ccccc23)CCc2ccc([N+](=O)[O-])cc21	11.9 µM (inactive)	47 µM (inactive)	12.7 µM (inactive)	19.3 µM (inactive)	24.8 µM (inactive)		21.5 µM (inactive)	13.3 µM (inactive)	4.8 µM (inactive)	16.1 µM (inactive)	22.8 µM (inactive)	28.5 µM (inactive)		26.9 µM (inactive)	23 µM (inactive)	19.2 µM (inactive)	17.3 µM (inactive)	9.66 µM (inactive)	34 µM (inactive)	60.8 µM (inactive)
CCOC(=O)C1=C(C)N(CC(C)C)C2(O)C(OC)CC(=O)C3C(=O)N(c4ccccc4)C(=O)C132 (stereo not given)	52.4 µM (inactive)	> 100 µM (inactive)	42.4 µM (inactive)	78.5 µM (inactive)	37 µM (inactive)	20.7 µM (inactive)	49.4 µM (inactive)	19.3 µM (inactive)	35.5 µM (inactive)	40.4 µM (inactive)	43.4 µM (inactive)	89.1 µM (inactive)	27.7 µM (inactive)	31.3 µM (inactive)	45.6 µM (inactive)	20 µM (inactive)	31.5 µM (inactive)	34 µM (inactive)	39 µM (inactive)	40.4 µM (inactive)
N#Cc1c(N2CCCC2)ncn(Cc2ccccc2)c1=S	94.6 µM (inactive)	> 79.3 µM (inactive)	58.5 µM (inactive)	40.6 µM (inactive)	> 48 µM (inactive)	> 100 µM (inactive)	40.1 µM (inactive)	68.7 µM (inactive)	49.1 µM (inactive)	> 100 µM (inactive)	> 100 µM (inactive)	> 88.3 µM (inactive)	44.2 µM (inactive)	> 100 µM (inactive)	22.4 µM (inactive)	25.8 µM (inactive)	> 87.9 µM (inactive)	> 100 µM (inactive)	> 100 µM (inactive)	> 100 µM (inactive)
COc1cc(C23OCC(Cc4cc5c(cc42)OCO5)C3CO)cc(OC)c1OC (stereo not given)	0.266 µM (active)	> 100 µM (inactive)	3.14 µM (inactive)	5.61 µM (inactive)	5.79 µM (inactive)	5.64 µM (inactive)	2.52 µM (inactive)		0.21 µM (active)	56.6 µM (inactive)	3.48 µM (inactive)	6.4 µM (inactive)	41.1 µM (inactive)	1.97 µM (inactive)	> 100 µM (inactive)	2.23 µM (inactive)	6.14 µM (inactive)	3.11 µM (inactive)	2.55 µM (inactive)	2.92 µM (inactive)
COc1ccc(CSCc2cc(OC)c(OC)c(OC)c2)cc1	> 52.4 µM (inactive)	> 31.6 µM (inactive)	> 68.1 µM (inactive)	> 100 µM (inactive)	> 100 µM (inactive)	> 100 µM (inactive)	> 71.9 µM (inactive)	> 43 µM (inactive)	> 56 µM (inactive)	> 84.5 µM (inactive)	> 100 µM (inactive)	> 100 µM (inactive)	> 100 µM (inactive)	28.4 µM (inactive)	23.9 µM (inactive)	37.5 µM (inactive)	> 31.6 µM (inactive)	> 83.2 µM (inactive)	> 100 µM (inactive)	> 100 µM (inactive)
CC(=O)O[C@H]1C#C/C=C\C#CC[C@@H]2C(=O)N[C@@H]12	24.5 µM (inactive)	> 100 µM (inactive)	31.3 µM (inactive)	21.6 µM (inactive)	4.5 µM (inactive)	> 49.8 µM (inactive)	0.726 µM (active)	26.4 µM (inactive)	4 µM (inactive)	30.7 µM (inactive)	28.7 µM (inactive)	> 100 µM (inactive)	> 100 µM (inactive)	7.78 µM (inactive)	46.2 µM (inactive)	28.1 µM (inactive)	22.9 µM (inactive)	> 51.3 µM (inactive)	50.4 µM (inactive)	4.13 µM (inactive)
COc1cc(C2c3cc4c(cc3[C@@H](Nc3ccc(N)cc3)C3COC(=O)[C@H]23)OCO4)cc(OC)c1O (stereo not given in full)	0.403 µM (active)	3.64 µM (inactive)	0.805 µM (active)	1.18 µM (inactive)	0.446 µM (active)	3.64 µM (inactive)	1.07 µM (active)	1.15 µM (inactive)	0.0451 µM (active)	2.5 µM (inactive)	0.137 µM (active)	12.3 µM (inactive)	24.5 µM (inactive)	0.395 µM (active)	0.948 µM (active)	1.94 µM (inactive)	2.13 µM (inactive)	2.14 µM (inactive)	7.85 µM (inactive)	0.222 µM (active)
Cc1coc2c1CC1(C)C(CCC(O)C1C)C2 (stereo not given)	> 100 µM (inactive)	> 100 µM (inactive)	> 100 µM (inactive)	> 100 µM (inactive)	> 100 µM (inactive)	> 100 µM (inactive)	> 100 µM (inactive)	> 100 µM (inactive)	> 100 µM (inactive)	> 100 µM (inactive)	> 100 µM (inactive)	> 100 µM (inactive)	> 100 µM (inactive)	> 100 µM (inactive)	> 100 µM (inactive)	> 100 µM (inactive)	> 100 µM (inactive)	> 100 µM (inactive)	> 100 µM (inactive)	> 100 µM (inactive)
CC(C)C1OC(=O)C(Cc2ccccc2)N(C)C(=O)C(C(C)C)OC(=O)C(Cc2ccccc2)N(C)C(=O)C(C(C)C)OC(=O)C(Cc2ccccc2)N(C)C1=O (stereo not given)	0.662 µM (active)	0.984 µM (active)	0.805 µM (active)	2.36 µM (inactive)	0.979 µM (active)	0.783 µM (active)	1.03 µM (active)	0.643 µM (active)	0.647 µM (active)	1.39 µM (inactive)	0.618 µM (active)	1.37 µM (inactive)	0.463 µM (active)	0.802 µM (active)	0.528 µM (active)	1.63 µM (inactive)	0.359 µM (active)	0.685 µM (active)	0.682 µM (active)	0.373 µM (active)
CC1(C)CCC[C@](C)([C@H]2CC[C@]3(C)[C@@H]2[C@H](O)C[C@@H]2[C@@]4(C)CC[C@H](O)C(C)(C)[C@@H]4[C@H](O)C[C@]23C)O1	10.5 µM (inactive)	13.6 µM (inactive)	11.5 µM (inactive)	12.8 µM (inactive)	5.6 µM (inactive)	3.55 µM (inactive)	11.7 µM (inactive)	13.3 µM (inactive)	9.73 µM (inactive)	13.8 µM (inactive)	9.68 µM (inactive)	17.3 µM (inactive)	10.6 µM (inactive)	17.5 µM (inactive)	13.6 µM (inactive)	10.7 µM (inactive)	19.1 µM (inactive)	13.2 µM (inactive)	10 µM (inactive)	3.09 µM (inactive)
COC1CC(N)C(O)C(C)O1 (stereo not given)	> 100 µM (inactive)	> 100 µM (inactive)	> 100 µM (inactive)	> 100 µM (inactive)	> 100 µM (inactive)	> 100 µM (inactive)	> 100 µM (inactive)	> 100 µM (inactive)	> 100 µM (inactive)	> 100 µM (inactive)		> 100 µM (inactive)	> 100 µM (inactive)	> 100 µM (inactive)	> 100 µM (inactive)	> 100 µM (inactive)	> 100 µM (inactive)	> 100 µM (inactive)	> 100 µM (inactive)	> 100 µM (inactive)

From ChEMBL document CHEMBL1201862, “PubChem BioAssay data set” (2004)
